Results: patent publication EP0377642B1, “HERBICIDES FOR WEED CONTROL IN RICE” (E.I. DU PONT DE NEMOURS AND COMPANY, priority 1987, dated 1989)

Legend:
Format in all cases: in vivo
Ludwigia linifolia [1] = assay: Herbicidal efficacy with Bensulfuron methyl and 2,4-D in Thailand (Table 19); conditions: 13 days after treatment
Procedure, shortened: (§1)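 Field trials: the sulfonylurea triazine methyl benzoate, alone or mixed with other herbicides, was sprayed with a hand sprayer onto transplanted or direct-seeded rice. Sites were in rice-growing areas of Southeast Asia and the U.S.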

Ludwigia linifolia [2] = assay: Herbicidal efficacy with Bensulfuron methyl and 2,4-D in Thailand (Table 18); conditions: 13 days after treatment
Procedure, shortened: as §1

rice [3] = assay: Greenhouse test of Compound 1 and Compound 2, crop tolerance (Table 26); conditions: treated 12 days after transplanting, rated 24 days after treatment; for % CONTROL OR INJURY LEMONT: indica rice variety Lemont; for % CONTROL OR INJURY M101: japonica rice variety M101
From the text: (§2) Methyl 2-[[[[(4-methoxy-6-methyl-1,3,5-triazin-2-yl)amino]carbonyl]amino]sulfonyl]benzoate (Compound 1) and mixtures thereof with other compounds were applied as a spray (using a hand sprayer) to rice (either transplanted or direct seeded) in several rice growing areas in Southeast Asia and in the U.S. Tables 1-28 contain the results of these tests and clearly exemplify the utility of this invention. The details of each application are included in the appropriate table. [drawing 2]

rice [4] = assay: Effects on rice growth in Thailand, phytotoxicity (Table 2); conditions: scale 0-10
From the text: as §2

Sesbania exaltata [5] = assay: Herbicidal efficacy in United States (Table 16); conditions: 57 days after application
From the text: as §2

rice [6] = assay: Herbicidal efficacy in United States (Table 16); conditions: 57 days after application
From the text: as §2

Eclipta alba [7] = assay: Herbicidal efficacy in United States (Table 16); conditions: 57 days after application
From the text: as §2

Sesbania exaltata [8] = assay: Late-post application in Beaumont, Texas, with 0.25% AG-98 (Table 9); conditions: 70 days after seeding
From the text: as §2

rice [9] = assay: as above; conditions: 70 days after seeding
From the text: as §2

Annual sedge (?) = assay: as above; conditions: 70 days after seeding
From the text: as §2

Eclipta alba [10] = assay: as above; conditions: 70 days after seeding
From the text: as §2

Caperonia castaniifolia = assay: as above; conditions: 70 days after seeding
From the text: as §2

Commelina communis = assay: as above; conditions: 70 days after seeding
From the text: as §2

Aeschynomene indica = assay: as above; conditions: 70 days after seeding
From the text: as §2

Echinochloa colonum = assay: as above; conditions: 70 days after seeding
From the text: as §2

rice [11] = assay: Effects in combination with Thiobencarb and Bensulfuron Methyl on rice growth (Table 22); conditions: rate 8 g ai/ha; var. Koshihikari, applied 7 days after transplanting, rated 21 days after application
From the text: as §2

Echinochloa crus-galli = assay: Herbicidal efficacy in Indonesia, applied 2 weeks after transplanting (Table 6)
From the text: as §2

rice [12] = assay: as above; conditions: 2 weeks after application
From the text: as §2

Salvinia molesta = assay: as above
From the text: as §2

Scirpus juncoides = assay: as above
From the text: as §2

[13] = tested on: transplanted rice (var. Nihonbare); assay: Crop tolerance of transplanted rice, combinations with Thiobencarb, Dimepiperate, Esprocarb and Dymron (Table 15); conditions: 15 days after application
From the text: as §2

Ludwigia linifolia [14] = assay: Herbicidal efficacy with 2,4-D in Thailand (Table 17); conditions: 4 GAI/HA; 14 days after treatment
From the text: as §2

Cyperus difformis = assay: as above; conditions: 4 GAI/HA; 14 days after treatment
From the text: as §2

MC = assay: as above; conditions: 4 GAI/HA; 14 days after treatment
From the text: as §2

rice [15] = assay: as above; conditions: 4 GAI/HA; 14 days after treatment
From the text: as §2

Sphenoclea zeylanica = assay: as above; conditions: 4 GAI/HA; 14 days after treatment
From the text: as §2

[16] = 3 GAI/HA, 2 weeks after application
[17] = 3 GAI/HA, 5 weeks after application
[18] = 3 GAI/HA, 7 weeks after application
[19] = 4 GAI/HA, 2 weeks after application
[20] = 4 GAI/HA, 5 weeks after application
[21] = 4 GAI/HA, 7 weeks after application
[22] = 6 GAI/HA, 2 weeks after application
[23] = 6 GAI/HA, 5 weeks after application
[24] = 6 GAI/HA, 7 weeks after application
[25] = 8 GAI/HA, 2 weeks after application
[26] = 8 GAI/HA, 5 weeks after application
[27] = 8 GAI/HA, 7 weeks after application

Compound: COC(=O)c1ccccc1CS(=O)(=O)NC(=O)Nc1nc(OC)cc(OC)n1 [Bensulfuron methyl, methyl 2-[[[[[(4,6-dimethoxy-2-pyrimidinyl)amino]carbonyl]amino]sulfonyl]methyl]benzoate]
- % CONTROL OR INJURY LL (Ludwigia linifolia [1]; 10 GAI/HA): 100%
- % CONTROL OR INJURY LL (Ludwigia linifolia [1]; 15 GAI/HA): 100%
- % CONTROL OR INJURY LL (Ludwigia linifolia [1]; 20 GAI/HA): 100%
- % CONTROL OR INJURY LL (Ludwigia linifolia [2]; 10 GAI/HA): 100%
- % CONTROL OR INJURY LL (Ludwigia linifolia [2]; 15 GAI/HA): 100%
- % CONTROL OR INJURY LL (Ludwigia linifolia [2]; 20 GAI/HA): 100%

Compound: COC(=O)c1ccccc1S(=O)(=O)NC(=O)Nc1nc(C)nc(OC)n1 [Compound 1, Methyl 2-[[[[(4-methoxy-6-methyl-1,3,5-triazin-2-yl)amino]carbonyl]amino]sulfonyl]benzoate]
- % CONTROL OR INJURY LEMONT (rice [3]; rate 1 g ai/ha): 10%
- % CONTROL OR INJURY LEMONT (rice [3]; rate 2 g ai/ha): 20%
- % CONTROL OR INJURY LEMONT (rice [3]; rate 4 g ai/ha): 40%
- % CONTROL OR INJURY LEMONT (rice [3]; rate 8 g ai/ha): 50%
- % CONTROL OR INJURY M101 (rice [3]; rate 1 g ai/ha): 0%
- % CONTROL OR INJURY M101 (rice [3]; rate 2 g ai/ha): 10%
- % CONTROL OR INJURY M101 (rice [3]; rate 4 g ai/ha): 10%
- % CONTROL OR INJURY M101 (rice [3]; rate 8 g ai/ha): 35%
- PHYTOTOXICITY (rice [4]; applied 7 DAS, 3 GAI/HA): 1.67
- PHYTOTOXICITY (rice [4]; applied 7 DAS, 6 GAI/HA): 1.33
- PHYTOTOXICITY (rice [4]; applied 14 DAS, 3 GAI/HA): 1.0
- PHYTOTOXICITY (rice [4]; applied 14 DAS, 6 GAI/HA): 1.0
- PHYTOTOXICITY (rice [4]; applied 21 DAS, 3 GAI/HA): 0
- PHYTOTOXICITY (rice [4]; applied 21 DAS, 6 GAI/HA): 0
- PHYTOTOXICITY (rice [4]; applied 28 DAS, 3 GAI/HA): 0
- PHYTOTOXICITY (rice [4]; applied 28 DAS, 6 GAI/HA): 0
- % CONTROL OR INJURY SE (Sesbania exaltata [5]; 7 GAI/HA): 97%
- % CONTROL OR INJURY SE (Sesbania exaltata [5]; 14 GAI/HA): 98%
- % CONTROL OR INJURY SE (Sesbania exaltata [5]; 21 GAI/HA): 98%
- % CONTROL OR INJURY RICE (rice [6]; 7 GAI/HA): 3%
- % CONTROL OR INJURY RICE (rice [6]; 14 GAI/HA): 10%
- % CONTROL OR INJURY RICE (rice [6]; 21 GAI/HA): 5%
- % CONTROL OR INJURY EA (Eclipta alba [7]; 7 GAI/HA): 97%
- % CONTROL OR INJURY EA (Eclipta alba [7]; 14 GAI/HA): 98%
- % CONTROL OR INJURY EA (Eclipta alba [7]; 21 GAI/HA): 98%
- % INJURY OR CONTROL SE (Sesbania exaltata [8]; 3 G/HA): 68%
- % INJURY OR CONTROL SE (Sesbania exaltata [8]; 6 G/HA): 62%
- % INJURY OR CONTROL SE (Sesbania exaltata [8]; 12 G/HA): 46%
- % INJURY OR CONTROL RICE (rice [9]; 3 G/HA): 3%
- % INJURY OR CONTROL RICE (rice [9]; 6 G/HA): 5%
- % INJURY OR CONTROL RICE (rice [9]; 12 G/HA): 6%
- % INJURY OR CONTROL SEDGE (Annual sedge (?); 3 G/HA): 43%
- % INJURY OR CONTROL SEDGE (Annual sedge (?); 6 G/HA): 56%
- % INJURY OR CONTROL SEDGE (Annual sedge (?); 12 G/HA): 56%
- % INJURY OR CONTROL EA (Eclipta alba [10]; 3 G/HA): 13%
- % INJURY OR CONTROL EA (Eclipta alba [10]; 6 G/HA): 23%
- % INJURY OR CONTROL EA (Eclipta alba [10]; 12 G/HA): 15%
- % INJURY OR CONTROL CC (Caperonia castaniifolia; 3 G/HA): 11%
- % INJURY OR CONTROL CC (Caperonia castaniifolia; 6 G/HA): 19%
- % INJURY OR CONTROL CC (Caperonia castaniifolia; 12 G/HA): 18%
- % INJURY OR CONTROL COM (Commelina communis; 3 G/HA): 13%
- % INJURY OR CONTROL COM (Commelina communis; 6 G/HA): 24%
- % INJURY OR CONTROL COM (Commelina communis; 12 G/HA): 23%
- % INJURY OR CONTROL AI (Aeschynomene indica; 3 G/HA): 68%
- % INJURY OR CONTROL AI (Aeschynomene indica; 6 G/HA): 62%
- % INJURY OR CONTROL AI (Aeschynomene indica; 12 G/HA): 46%
- % INJURY OR CONTROL EC (Echinochloa colonum; 3 G/HA): 26%
- % INJURY OR CONTROL EC (Echinochloa colonum; 6 G/HA): 30%
- % INJURY OR CONTROL EC (Echinochloa colonum; 12 G/HA): 24%
- CROP TOLERANCE DW (Dry weight relative to untreated check) (rice [11]): 92%
- CROP TOLERANCE PH (Plant height relative to untreated check) (rice [11]): 99%
- CROP TOLERANCE VA (Visual crop injury) (rice [11]): 0.5%
- % CONTROL EC (Echinochloa crus-galli; [16]): 20%
- % CONTROL EC (Echinochloa crus-galli; [17]): 30%
- % CONTROL EC (Echinochloa crus-galli; [18]): 0%
- % CONTROL EC (Echinochloa crus-galli; [19]): 20%
- % CONTROL EC (Echinochloa crus-galli; [20]): 30%
- % CONTROL EC (Echinochloa crus-galli; [21]): 0%
- % CONTROL EC (Echinochloa crus-galli; [22]): 20%
- % CONTROL EC (Echinochloa crus-galli; [23]): 30%
- % CONTROL EC (Echinochloa crus-galli; [24]): 0%
- % CONTROL EC (Echinochloa crus-galli; [25]): 20%
- % CONTROL EC (Echinochloa crus-galli; [26]): 30%
- % CONTROL EC (Echinochloa crus-galli; [27]): 0%
- % CONTROL RICE (rice [12]; 3 GAI/HA): 10%
- % CONTROL RICE (rice [12]; 4 GAI/HA): 10%
- % CONTROL RICE (rice [12]; 6 GAI/HA): 10%
- % CONTROL RICE (rice [12]; 8 GAI/HA): 10%
- % CONTROL SM (Salvinia molesta; [16]): 30%
- % CONTROL SM (Salvinia molesta; [17]): 70%
- % CONTROL SM (Salvinia molesta; [18]): 80%
- % CONTROL SM (Salvinia molesta; [19]): 40%
- % CONTROL SM (Salvinia molesta; [20]): 70%
- % CONTROL SM (Salvinia molesta; [21]): 80%
- % CONTROL SM (Salvinia molesta; [22]): 30%
- % CONTROL SM (Salvinia molesta; [23]): 90%
- % CONTROL SM (Salvinia molesta; [24]): 90%
- % CONTROL SM (Salvinia molesta; [25]): 40%
- % CONTROL SM (Salvinia molesta; [26]): 80%
- % CONTROL SM (Salvinia molesta; [27]): 90%
- % CONTROL SJ (Scirpus juncoides; [16]): 60%
- % CONTROL SJ (Scirpus juncoides; [17]): 90%
- % CONTROL SJ (Scirpus juncoides; [18]): 70%
- % CONTROL SJ (Scirpus juncoides; [19]): 60%
- % CONTROL SJ (Scirpus juncoides; [20]): 100%
- % CONTROL SJ (Scirpus juncoides; [21]): 70%
- % CONTROL SJ (Scirpus juncoides; [22]): 90%
- % CONTROL SJ (Scirpus juncoides; [23]): 100%
- % CONTROL SJ (Scirpus juncoides; [24]): 80%
- % CONTROL SJ (Scirpus juncoides; [25]): 80%
- % CONTROL SJ (Scirpus juncoides; [26]): 100%
- % CONTROL SJ (Scirpus juncoides; [27]): 80%
- CROP TOLERANCE (Nihonbare) DW, dry weight relative to untreated check ([13]; 4 GAI/HA): 107%
- CROP TOLERANCE (Nihonbare) PH, plant height relative to untreated check ([13]; 4 GAI/HA): 103%
- CROP TOLERANCE (Nihonbare) VA, visual crop injury ([13]; 4 GAI/HA): 0%
- CROP TOLERANCE (Nihonbare) DW, dry weight relative to untreated check ([13]; 8 GAI/HA): 83%
- CROP TOLERANCE (Nihonbare) PH, plant height relative to untreated check ([13]; 8 GAI/HA): 95%
- CROP TOLERANCE (Nihonbare) VA, visual crop injury ([13]; 8 GAI/HA): 3%
- % CONTROL OR INJURY LL (Ludwigia linifolia [14]): 87%
- % CONTROL OR INJURY CD (Cyperus difformis): 100%
- % CONTROL OR INJURY MC (MC): 100%
- % CONTROL OR INJURY RICE (rice [15]): 16.6%
- % CONTROL OR INJURY SZ (Sphenoclea zeylanica): 100%
